Test results published in ChEMBL document CHEMBL1140693, “4,5-diarylisoxazole Hsp90 chaperone inhibitors: potential therapeutic agents for the treatment of cancer” (J Med Chem, 2008).

Legend:
Heat shock protein HSP90 = Heat shock protein HSP90 (Homo sapiens, UniProt P07900+P08238)
Description: Displacement of fluorescent labelled VER-00051001 from human Hsp90-beta by FP assay

HCT-116 [1] = assay: cells; details: Homo sapiens, HCT-116, 24 h
Description: Growth inhibition of human HCT116 cells after 24 hrs by SRB assay

[2] = Growth inhibition of human PC3M cells by SRB assay; assay type: functional; details: PC-3M
SK-MEL-28 = assay: Growth inhibition of human SKMel28 cells by SRB assay; assay type: functional
DU-145 = assay: Growth inhibition of human DU145 cells by SRB assay; assay type: functional
[3] = Cmax in human HCT116 cells bearing NCr athymic mouse at 4 mg/kg, cassette dosing; assay type: ADME, organism-based, HCT-116; parameters: dose 4 mg/kg; details: in vivo
[4] = AUClast in human HCT116 cells bearing NCr athymic mouse at 4 mg/kg, cassette dosing; assay type: ADME, organism-based, HCT-116; parameters: time 0 - last, dose 4 mg/kg; details: in vivo
[5] = Growth inhibition of human U87MG cells by SRB assay; assay type: functional, U-87MG ATCC; details: U-87 MG
[6] = Apparent clearance in human HCT116 cells bearing NCr athymic mouse at 4 mg/kg, cassette dosing; assay type: ADME, organism-based, HCT-116; parameters: dose 4 mg/kg; details: in vivo
SF-268 = assay: Growth inhibition of human SF268 cells by SRB assay; assay type: functional
[7] = Apparent terminal-phase volume of distribution (Vz/F) in human HCT116 cells bearing NCr athymic mouse at 4 mg/kg, cassette dosing; details: in vivo
[8] = Tmax in human HCT116 cells bearing NCr athymic mouse at 4 mg/kg, cassette dosing; assay type: ADME, organism-based, HCT-116; parameters: dose 4 mg/kg; details: in vivo
[9] = Terminal half life in human HCT116 cells bearing NCr athymic mouse at 4 mg/kg, cassette dosing; assay type: ADME, organism-based, HCT-116; parameters: dose 4 mg/kg; details: in vivo, read-out: t1/2 lambda z (converted)
HCT-116 [10] = assay: Inhibition of tumor growth in human HCT116 cells bearing mouse assessed as tumor weight at 50 mg/kg, ip qd after 12 days relative to control; details: HCT-116, ip, 288 h

SMILES	IC50 (Heat shock protein HSP90)	GI50 (HCT-116 [1])	also measured
Oc1cc(O)c(-c2n[nH]cc2N2CCN(Cc3ccccc3)CC2)cc1Cl	600 nM	6500 nM	–
CCNC(=O)c1noc(-c2cc(Cl)c(O)cc2O)c1-c1ccc(OC)cc1	–	120 nM	GI50 [2]: 220 nM; GI50 (SK-MEL-28): 45 nM; GI50 (DU-145): 230 nM; Cmax [3]: 482 nM; AUC(0-t) [4]: 1.73 µM·h; GI50 [5]: 28 nM; CL/F [6]: 1.27 mL/min; GI50 (SF-268): 34 nM; Vz/F [7]: 0.432 L; Tmax [8]: 1 h; half-life [9]: 3.9 h
CCNC(=O)c1noc(-c2cc(C(C)C)c(O)cc2O)c1-c1ccc(CN(CC)CC)cc1	6 nM	6 nM	–
CCNC(=O)c1noc(-c2cc(CC)c(O)cc2OC)c1-c1ccc(CN2CCOCC2)cc1	540 nM	2150 nM	–
CCNC(=O)c1noc(-c2cc(CC)c(OC)cc2OC)c1-c1ccc(CN2CCOCC2)cc1	1560 nM	32000 nM	–
CCNC(=O)c1[nH]nc(-c2cc(Cl)c(O)cc2O)c1-c1ccc(CN(CC)CC)cc1	146 nM	315 nM	–
CCNC(=O)c1[nH]nc(-c2cc(Cl)c(O)cc2O)c1-c1ccc(CNC(=O)C2CCCN(C)C2)cc1 (configuration not stated)	115 nM	3470 nM	–
CCNC(=O)c1[nH]nc(-c2cc(Cl)c(O)cc2O)c1-c1ccc(CN2CCOCC2)cc1	37 nM	290 nM	–
CCNC(=O)c1[nH]nc(-c2cc(Cl)c(O)cc2O)c1-c1cccc(CN2CCOCC2)c1	222 nM	2690 nM	–
CCNC(=O)c1[nH]nc(-c2cc(Cl)c(O)cc2O)c1-c1cccc(CNCCN2CCCCC2)c1	1000 nM	25100 nM	–
CCNC(=O)c1[nH]nc(-c2cc(Cl)c(O)cc2O)c1-c1cccc(CNCCN2CCOCC2)c1	431 nM	12500 nM	–
CCNC(=O)c1[nH]nc(-c2cc(Cl)c(O)cc2O)c1-c1cccc(CN2CCC(CO)CC2)c1	2630 nM	> 80000 nM	–
CCNC(=O)c1[nH]nc(-c2cc(Cl)c(O)cc2O)c1-c1cccc(CN2CCN(C(C)=O)CC2)c1	1290 nM	32700 nM	–
CCNC(=O)c1noc(-c2cc(C(C)(C)C)c(O)cc2O)c1-c1ccc(CN2CCCCC2)cc1	11 nM	65 nM	–
CCNC(=O)c1noc(-c2cc(Cl)c(O)cc2O)c1-c1ccc(CN2CCS(=O)(=O)CC2)cc1	21 nM	470 nM	–
CCNC(=O)c1noc(-c2cc(Cl)c(O)cc2O)c1-c1ccc(CNCCS(C)(=O)=O)cc1	14 nM	1980 nM	–
CCNC(=O)c1noc(-c2cc(Cl)c(O)cc2O)c1-c1ccc(CN(CC)CC)cc1	64 nM	56 nM	–
CCNC(=O)c1noc(-c2cc(Cl)c(O)cc2O)c1-c1ccc(CN2CCCCC2)cc1	19 nM	61 nM	–
CCNC(=O)c1noc(-c2cc(Cl)c(O)cc2O)c1-c1ccc(CN2CCC(O)CC2)cc1	28 nM	1290 nM	–
CCNC(=O)c1noc(-c2cc(Cl)c(O)cc2O)c1-c1ccc(CN(C)C)cc1	18 nM	69 nM	–
CCNC(=O)c1noc(-c2cc(Cl)c(O)cc2O)c1-c1cccc(N2CCOCC2)c1	127 nM	634 nM	–
CCNC(=O)c1noc(-c2cc(CCc3ccccc3)c(O)cc2O)c1-c1ccc(CN2CCOCC2)cc1	32 nM	29 nM	–
CCNC(=O)c1noc(-c2cc(CC)c(O)cc2O)c1-c1ccc(CN(CC)CC)cc1	13 nM	41 nM	–
CC(=O)c1ccc(CNC(=O)c2c[nH]nc2-c2cc(Cl)c(O)cc2O)cc1	258 nM	11600 nM	–
CCNC(=O)c1noc(-c2cc(CCc3ccc(F)cc3)c(O)cc2O)c1-c1ccc(CN2CCOCC2)cc1	20 nM	39 nM	–
CCNC(=O)c1noc(-c2cc(CCc3cccc(F)c3)c(O)cc2O)c1-c1ccc(CN2CCOCC2)cc1	26 nM	58 nM	–

SMILES	IC50 (Heat shock protein HSP90)	GI50 (HCT-116 [1])	also measured
CCNC(=O)c1noc(-c2cc(-c3ccccc3)c(O)cc2O)c1-c1ccc(CN2CCOCC2)cc1	22 nM	152 nM	–
CCNC(=O)c1noc(-c2cc(-c3ccccc3C)c(O)cc2O)c1-c1ccc(CN2CCCCC2)cc1	14 nM	114 nM	–
CCNC(=O)c1noc(-c2cc(-c3ccc(F)cc3)c(O)cc2O)c1-c1ccc(CN2CCCCC2)cc1	36 nM	35 nM	–
CCNC(=O)c1n[nH]c(-c2cc(Cl)c(O)cc2O)c1-c1ccc(OC)cc1	–	–	GI50 [2]: 2200 nM; GI50 (SK-MEL-28): 480 nM; GI50 (DU-145): 1200 nM; GI50 [5]: 1200 nM; GI50 (SF-268): 320 nM
CCNC(=O)c1noc(-c2cc(Cl)c(O)cc2O)c1-c1ccc(CN2CCOCC2)cc1	–	83 nM	–
CCNC(=O)c1[nH]nc(-c2cc(Cl)c(O)cc2O)c1-c1ccc(CN2CCS(=O)(=O)CC2)cc1	27 nM	826 nM	–
CCNC(=O)c1[nH]nc(-c2cc(Cl)c(O)cc2O)c1-c1ccc(CN(CCO)CCO)cc1	142 nM	7800 nM	–
CCc1cc(-c2[nH]nc(C)c2-c2ccc3c(c2)OCCO3)c(O)cc1O	–	5800 nM	–
CCNC(=O)c1[nH]nc(-c2cc(Cl)c(O)cc2O)c1-c1cccc(CNCCOC)c1	728 nM	12900 nM	–
CCNC(=O)c1noc(-c2cc(C(C)(C)C)c(O)cc2O)c1-c1ccc(CN2CCOCC2)cc1	8 nM	70 nM	Cmax [3]: 203 nM; AUC(0-t) [4]: 0.751 µM·h; CL/F [6]: 1.85 mL/min; Vz/F [7]: 0.809 L; Tmax [8]: 1 h; half-life [9]: 5 h
CCNC(=O)c1[nH]nc(-c2cc(Cl)c(O)cc2O)c1-c1cccc(CN2CCC[C@H]2CO)c1	1660 nM	11400 nM	–
CCNC(=O)c1noc(-c2cc(-c3ccccc3F)c(O)cc2O)c1-c1ccc(CN2CCOCC2)cc1	39 nM	87 nM	–
CCNC(=O)c1noc(-c2cc(Cl)c(O)cc2O)c1-c1cccc(N2CCN(C)CC2)c1	343 nM	2780 nM	–
CCNC(=O)c1noc(-c2cc(CC)c(O)cc2O)c1-c1ccc(CN2CCOCC2)cc1	29 nM	25 nM	–
CCNC(=O)c1noc(-c2cc(-c3ccccc3)c(O)cc2O)c1-c1ccc(CN2CCCCC2)cc1	14 nM	86 nM	Cmax [3]: 237 nM; AUC(0-t) [4]: 0.995 µM·h; CL/F [6]: 1.03 mL/min; Vz/F [7]: 0.652 L; Tmax [8]: 1 h; half-life [9]: 7.3 h
CCNC(=O)c1noc(-c2cc(-c3ccccc3)c(O)cc2O)c1-c1ccc(CN(CC)CC)cc1	74 nM	91 nM	Cmax [3]: 252 nM; AUC(0-t) [4]: 1.25 µM·h; CL/F [6]: 0.583 mL/min; Vz/F [7]: 0.736 L; Tmax [8]: 4 h; half-life [9]: 14.6 h
CCNC(=O)c1noc(-c2cc(Cl)c(O)cc2O)c1-c1ccc(CN2CCN(C)CC2)cc1	39 nM	125 nM	–
CCNC(=O)c1[nH]nc(-c2cc(Cl)c(O)cc2O)c1-c1ccc(CNCCS(C)(=O)=O)cc1	35 nM	2160 nM	–
CCNC(=O)c1[nH]nc(-c2cc(Cl)c(O)cc2O)c1-c1ccc(CNC(=O)C[C@@H]2CCCN2)cc1	57 nM	275 nM	–
CCNC(=O)c1[nH]nc(-c2cc(Cl)c(O)cc2O)c1-c1cccc(CNCc2ccccc2C(F)(F)F)c1	231 nM	3110 nM	–
CCNC(=O)c1[nH]nc(-c2cc(Cl)c(O)cc2O)c1-c1cccc(CN(C)CCO)c1	914 nM	9240 nM	–
CCNC(=O)c1noc(-c2cc(Cl)c(O)cc2O)c1-c1ccc(CN2CCCC2)cc1	39 nM	118 nM	–
CCNC(=O)c1noc(-c2cc(CC)c(OC)cc2O)c1-c1ccc(CN2CCOCC2)cc1	15 nM	80 nM	–
CCNC(=O)c1noc(-c2cc(CCc3ccc(F)cc3)c(O)cc2O)c1-c1ccc(CN2CCCCC2)cc1	26 nM	29 nM	–
CCNC(=O)c1noc(-c2cc(C(C)C)c(O)cc2O)c1-c1ccc(CN2CCOCC2)cc1 [LUMINESPIB]	–	–	GI50 [2]: 6 nM; GI50 (SK-MEL-28): 5 nM; GI50 (DU-145): 5 nM; Cmax [3]: 385 nM; T/C at 50 mg/kg (HCT-116 [10]): 49.8%; AUC(0-t) [4]: 1.72 µM·h; GI50 [5]: 8 nM; CL/F [6]: 0.583 mL/min; GI50 (SF-268): 6 nM; Vz/F [7]: 0.478 L; Tmax [8]: 1 h; half-life [9]: 9.5 h
C=CCNC1=C2C[C@@H](C)C[C@H](OC)[C@H](O)[C@@H](C)/C=C(\C)[C@H](OC(N)=O)[C@@H](OC)/C=C\C=C(/C)C(=O)NC(=CC1=O)C2=O [TANESPIMYCIN]	–	160 nM	–
